# Results as given in patent US9562085B2, “Antimicrobial peptide” (priority 2013, dated 2017).
# Non-standard residues stand in square brackets, D forms with d. Residues, ends and D or L forms follow the SMILES beside them. *: point of attachment. X2 = NC(=O)OCCOCCOCCOCCOCCOCCOCCOCCOCCOCCOCCN*; X1 = NCCOCCOCCOCCOCCOCCOCCOCCOCCOCCOCCOC(=O)*; Decanoyl = CCCCCCCCCC(=O)*; Hexanoyl = CCCCCC(=O)*; Ahx = NCCCCCC(=O)O
# Tested on: S. aureus JAR
# Format: cell-based
# Settings: JAR, 2 h
# Method: S. aureus JAR is described in Campoccia et al. (Int. J. Artif. Organs, 2008 September; 31(9):841-7).
# For the in vitro killing assay with P10 variants, S. aureus JAR ([…] CFU/ml) were incubated for 2 hours at 37° C. with various concentrations of the peptides in PBS or in PBS/human plasma (1/1, v/v). […] The LC99.9 is the average value of two independent experiments.
SMILES,LC99.9 (μM) (50% plasma) [µM],LC99.9 (μM) (PBS) [µM]
"CC[C@H](C)[C@H](NC(=O)[C@H](CCCCN)NC(=O)[C@H](CCCCN)NC(=O)[C@H](Cc1ccc(O)cc1)NC(=O)[C@H](CCC(=O)O)NC(=O)[C@H](CCCNC(=N)N)NC(=O)[C@H](C)NC(=O)[C@H](CC(C)C)NC(C)=O)C(=O)N[C@H](C(=O)N[C@@H](CCC(=O)O)C(=O)N[C@@H](CCCCN)C(=O)N[C@@H](CC(C)C)C(=O)N[C@@H](CCCCN)C(=O)N[C@@H](CCCNC(=N)N)C(=O)N[C@@H](Cc1c[nH]c2ccccc12)C(=O)N[C@@H](CC(C)C)C(=O)N[C@@H](CCCNC(=N)N)C(=O)N[C@@H](CCC(N)=O)C(=O)N[C@H](C(=O)N[C@@H](CC(C)C)C(=O)N[C@H](CCCNC(=N)N)C(=O)N[C@H](C(=O)N[C@@H](CC(C)C)C(=O)N[C@@H](CCCNC(=N)N)C(N)=O)[C@@H](C)O)C(C)C)C(C)C [Peptide 1301-21, JLAREYKKIVEKLKRWLRQVLrTLRB] (Ac-LAREYKKIVEKLKRWLRQVL[dR]TLR-NH2)",38.4,0.6
"CC[C@H](C)[C@H](NC(=O)[C@H](CCCCN)NC(=O)[C@H](CCCCN)NC(=O)[C@H](Cc1ccc(O)cc1)NC(=O)[C@H](CCC(=O)O)NC(=O)[C@H](CCCNC(=N)N)NC(=O)[C@H](C)NC(=O)[C@H](CC(C)C)NC(C)=O)C(=O)N[C@H](C(=O)N[C@@H](CCC(=O)O)C(=O)N[C@@H](CCCCN)C(=O)N[C@@H](CC(C)C)C(=O)N[C@@H](CCCCN)C(=O)N[C@@H](CCCNC(=N)N)C(=O)N[C@@H](Cc1c[nH]c2ccccc12)C(=O)N[C@@H](CC(C)C)C(=O)N[C@@H](CCCNC(=N)N)C(=O)N[C@@H](CCC(N)=O)C(=O)N[C@H](C(=O)N[C@@H](CC(C)C)C(=O)N[C@@H](CCCNC(=N)N)C(=O)N[C@@H](C(=O)N[C@@H](CC(C)C)C(=O)N[C@@H](CCCNC(=N)N)C(N)=O)[C@H](C)O)C(C)C)C(C)C [Peptide 1301-22, JLAREYKKIVEKLKRWLRQVLRtLRB] (Ac-LAREYKKIVEKLKRWLRQVLR[dT]LR-NH2)",38.4,0.6
"CC[C@H](C)[C@H](NC(=O)[C@H](CCCCN)NC(=O)[C@H](CCCCN)NC(=O)[C@H](Cc1ccc(O)cc1)NC(=O)[C@H](CCC(=O)O)NC(=O)[C@H](CCCNC(=N)N)NC(=O)[C@H](C)NC(=O)[C@H](CC(C)C)NC(C)=O)C(=O)N[C@H](C(=O)N[C@@H](CCC(=O)O)C(=O)N[C@@H](CCCCN)C(=O)N[C@@H](CC(C)C)C(=O)N[C@@H](CCCCN)C(=O)N[C@@H](CCCNC(=N)N)C(=O)N[C@@H](Cc1c[nH]c2ccccc12)C(=O)N[C@@H](CC(C)C)C(=O)N[C@@H](CCCNC(=N)N)C(=O)N[C@@H](CCC(N)=O)C(=O)N[C@H](C(=O)N[C@@H](CC(C)C)C(=O)N[C@@H](CCCNC(=N)N)C(=O)N[C@H](C(=O)N[C@H](CC(C)C)C(=O)N[C@@H](CCCNC(=N)N)C(N)=O)[C@@H](C)O)C(C)C)C(C)C [Peptide 1301-23, JLAREYKKIVEKLKRWLRQVLRTlRB] (Ac-LAREYKKIVEKLKRWLRQVLRT[dL]R-NH2)",32.0,0.4
"CC[C@H](C)[C@H](NC(=O)[C@H](CCCCN)NC(=O)[C@H](CCCCN)NC(=O)[C@H](Cc1ccc(O)cc1)NC(=O)[C@H](CCC(=O)O)NC(=O)[C@H](CCCNC(=N)N)NC(=O)[C@H](C)NC(=O)[C@H](CC(C)C)NC(C)=O)C(=O)N[C@H](C(=O)N[C@@H](CCC(=O)O)C(=O)N[C@@H](CCCCN)C(=O)N[C@@H](CC(C)C)C(=O)N[C@@H](CCCCN)C(=O)N[C@@H](CCCNC(=N)N)C(=O)N[C@@H](Cc1c[nH]c2ccccc12)C(=O)N[C@@H](CC(C)C)C(=O)N[C@@H](CCCNC(=N)N)C(=O)N[C@@H](CCC(N)=O)C(=O)N[C@H](C(=O)N[C@@H](CC(C)C)C(=O)N[C@@H](CCCNC(=N)N)C(=O)N[C@H](C(=O)N[C@@H](CC(C)C)C(=O)N[C@H](CCCNC(=N)N)C(N)=O)[C@@H](C)O)C(C)C)C(C)C [Peptide 1301-24, JLAREYKKIVEKLKRWLRQVLRTLrB] (Ac-LAREYKKIVEKLKRWLRQVLRTL[dR]-NH2)",19.2,0.6
"CC[C@H](C)[C@H](NC(=O)[C@H](CCCCN)NC(=O)[C@H](CCCCN)NC(=O)[C@H](Cc1ccc(O)cc1)NC(=O)[C@H](CCC(=O)O)NC(=O)[C@H](CCCNC(=N)N)NC(=O)[C@H](C)NC(=O)[C@H](CC(C)C)NC(C)=O)C(=O)N[C@H](C(=O)N[C@@H](CCC(=O)O)C(=O)N[C@@H](CCCCN)C(=O)N[C@@H](CC(C)C)C(=O)N[C@@H](CCCCN)C(=O)N[C@@H](CCCNC(=N)N)C(=O)N[C@@H](Cc1c[nH]c2ccccc12)C(=O)N[C@@H](CC(C)C)C(=O)N[C@@H](CCCNC(=N)N)C(=O)N[C@@H](CCC(N)=O)C(=O)N[C@H](C(=O)N[C@@H](CC(C)C)C(=O)N[C@@H](CCCNC(=N)N)C(=O)N[C@H](C(=O)N[C@@H](CC(C)C)C(=O)N[C@@H](CCCNC(=N)N)C(=O)NCCCCCC(=O)NCCCCCC(N)=O)[C@@H](C)O)C(C)C)C(C)C [Peptide 1302-4, JLAREYKKIVEKLKRWLRQVLRTLRZZB] (Ac-LAREYKKIVEKLKRWLRQVLRTLR[Ahx][Ahx]-NH2)",38.4,0.8
"CC[C@H](C)[C@H](NC(=O)[C@H](CCCCN)NC(=O)[C@H](CCCCN)NC(=O)[C@H](Cc1ccc(O)cc1)NC(=O)[C@H](CCC(=O)O)NC(=O)[C@H](CCCNC(=N)N)NC(=O)[C@H](C)NC(=O)[C@H](CC(C)C)NC(C)=O)C(=O)N[C@H](C(=O)N[C@@H](CCC(=O)O)C(=O)N[C@@H](CCCCN)C(=O)N[C@@H](CC(C)C)C(=O)N[C@@H](CCCCN)C(=O)N[C@@H](CCCNC(=N)N)C(=O)N[C@@H](Cc1c[nH]c2ccccc12)C(=O)N[C@@H](CC(C)C)C(=O)N[C@@H](CCCNC(=N)N)C(=O)N[C@@H](CCC(N)=O)C(=O)N[C@H](C(=O)N[C@@H](CC(C)C)C(=O)N[C@@H](CCCNC(=N)N)C(=O)N[C@H](C(=O)N[C@@H](CC(C)C)C(=O)N[C@@H](CCCNC(=N)N)C(=O)NCCOCCOCCOCCOCCOCCOCCOCCOCCOCCOCCOC(N)=O)[C@@H](C)O)C(C)C)C(C)C [Peptide 1302-5, JLAREYKKIVEKLKRWLRQVLRTLRoB] (Ac-LAREYKKIVEKLKRWLRQVLRTLR-X2)",102.4,0.8
"CC[C@H](C)[C@H](NC(=O)[C@H](CCCCN)NC(=O)[C@H](CCCCN)NC(=O)[C@H](Cc1ccc(O)cc1)NC(=O)[C@H](CCC(=O)O)NC(=O)[C@H](CCCNC(=N)N)NC(=O)[C@H](C)NC(=O)[C@H](CC(C)C)NC(C)=O)C(=O)N[C@H](C(=O)N[C@@H](CCC(=O)O)C(=O)N[C@@H](CCCCN)C(=O)N[C@@H](CC(C)C)C(=O)N[C@@H](CCCCN)C(=O)N[C@@H](CCCNC(=N)N)C(=O)N[C@@H](Cc1c[nH]c2ccccc12)C(=O)N[C@@H](CC(C)C)C(=O)N[C@@H](CCCNC(=N)N)C(=O)N[C@@H](CCC(N)=O)C(=O)N[C@H](C(=O)N[C@@H](CC(C)C)C(=O)N[C@@H](CCCNC(=N)N)C(=O)N[C@H](C(=O)N[C@@H](CC(C)C)C(=O)N[C@@H](CCCNC(=N)N)C(=O)NCCCCCC(N)=O)[C@@H](C)O)C(C)C)C(C)C [Peptide 1302-6, JLAREYKKIVEKLKRWLRQVLRTLRZB] (Ac-LAREYKKIVEKLKRWLRQVLRTLR[Ahx]-NH2)",38.4,0.6
"CC[C@H](C)[C@H](NC(=O)[C@H](CCCCN)NC(=O)[C@H](CCCCN)NC(=O)[C@H](Cc1ccc(O)cc1)NC(=O)[C@H](CCC(=O)O)NC(=O)[C@H](CCCNC(=N)N)NC(=O)[C@H](C)NC(=O)[C@H](CC(C)C)NC(=O)OCCOCCOCCOCCOCCOCCOCCOCCOCCOCCOCCN)C(=O)N[C@H](C(=O)N[C@@H](CCC(=O)O)C(=O)N[C@@H](CCCCN)C(=O)N[C@@H](CC(C)C)C(=O)N[C@@H](CCCCN)C(=O)N[C@@H](CCCNC(=N)N)C(=O)N[C@@H](Cc1c[nH]c2ccccc12)C(=O)N[C@@H](CC(C)C)C(=O)N[C@@H](CCCNC(=N)N)C(=O)N[C@@H](CCC(N)=O)C(=O)N[C@H](C(=O)N[C@@H](CC(C)C)C(=O)N[C@@H](CCCNC(=N)N)C(=O)N[C@H](C(=O)N[C@@H](CC(C)C)C(=O)N[C@@H](CCCNC(=N)N)C(N)=O)[C@@H](C)O)C(C)C)C(C)C [Peptide 1302-7, oLAREYKKIVEKLKRWLRQVLRTLRB] (X1-LAREYKKIVEKLKRWLRQVLRTLR-NH2; N-terminus assumed)",102.4,1.6
"CCCCCC(=O)N[C@@H](CC(C)C)C(=O)N[C@@H](C)C(=O)N[C@@H](CCCNC(=N)N)C(=O)N[C@@H](CCC(=O)O)C(=O)N[C@@H](Cc1ccc(O)cc1)C(=O)N[C@@H](CCCCN)C(=O)N[C@@H](CCCCN)C(=O)N[C@H](C(=O)N[C@H](C(=O)N[C@@H](CCC(=O)O)C(=O)N[C@@H](CCCCN)C(=O)N[C@@H](CC(C)C)C(=O)N[C@@H](CCCCN)C(=O)N[C@@H](CCCNC(=N)N)C(=O)N[C@@H](Cc1c[nH]c2ccccc12)C(=O)N[C@@H](CC(C)C)C(=O)N[C@@H](CCCNC(=N)N)C(=O)N[C@@H](CCC(N)=O)C(=O)N[C@H](C(=O)N[C@@H](CC(C)C)C(=O)N[C@@H](CCCNC(=N)N)C(=O)N[C@H](C(=O)N[C@@H](CC(C)C)C(=O)N[C@@H](CCCNC(=N)N)C(N)=O)[C@@H](C)O)C(C)C)C(C)C)[C@@H](C)CC [Peptide 1302-8, bLAREYKKIVEKLKRWLRQVLRTLRB] (Hexanoyl-LAREYKKIVEKLKRWLRQVLRTLR-NH2)",102.4,1.2
"CCCCCCCCCC(=O)N[C@@H](CC(C)C)C(=O)N[C@@H](C)C(=O)N[C@@H](CCCNC(=N)N)C(=O)N[C@@H](CCC(=O)O)C(=O)N[C@@H](Cc1ccc(O)cc1)C(=O)N[C@@H](CCCCN)C(=O)N[C@@H](CCCCN)C(=O)N[C@H](C(=O)N[C@H](C(=O)N[C@@H](CCC(=O)O)C(=O)N[C@@H](CCCCN)C(=O)N[C@@H](CC(C)C)C(=O)N[C@@H](CCCCN)C(=O)N[C@@H](CCCNC(=N)N)C(=O)N[C@@H](Cc1c[nH]c2ccccc12)C(=O)N[C@@H](CC(C)C)C(=O)N[C@@H](CCCNC(=N)N)C(=O)N[C@@H](CCC(N)=O)C(=O)N[C@H](C(=O)N[C@@H](CC(C)C)C(=O)N[C@@H](CCCNC(=N)N)C(=O)N[C@H](C(=O)N[C@@H](CC(C)C)C(=O)N[C@@H](CCCNC(=N)N)C(N)=O)[C@@H](C)O)C(C)C)C(C)C)[C@@H](C)CC [Peptide 1302-9, jLAREYKKIVEKLKRWLRQVLRTLRB] (Decanoyl-LAREYKKIVEKLKRWLRQVLRTLR-NH2)",>102.4,1.6
